Data: ChEMBL document CHEMBL3044960, “Evaluation of fungicide applications to sweet orange at different flowering stages for control of postbloom fruit drop caused by Colletotrichum acutatum” (2008)
Activity calls are given as the source filed them. The calls are words filed in the database; no cut-off is given here.

Key:
Colletotrichum acutatum [1] = assay: Fungicidal activity against Colletotrichum acutatum infested Citrus sinensis assessed as total fruit weight per plant at 0.056 g/l applied through airblast sprayer during white bud and hollow ball flower stages measured after 70 days (Rvb =49.88 kg)s; format: functional
Colletotrichum acutatum [2] = assay: Fungicidal activity against Colletotrichum acutatum infested Citrus sinensis assessed as total fruit weight per plant at 0.056 g/l applied through airblast sprayer during green bud and hollow ball flower stages measured after 70 days (Rvb =49.88 kg); format: functional
Colletotrichum acutatum [3] = assay: Fungicidal activity against Colletotrichum acutatum infested Citrus sinensis assessed as total fruit weight per plant at 0.056 g/l applied through airblast sprayer during open flower stage measured after 70 days (Rvb =49.88 kg); format: functional
Colletotrichum acutatum [4] = assay: Fungicidal activity against Colletotrichum acutatum infested Citrus sinensis assessed as total fruit weight per plant at 0.056 g/l applied through airblast sprayer during hollow ball flower stage measured after 70 days (Rvb =49.88 kg); format: functional
Colletotrichum acutatum [5] = assay: Fungicidal activity against Colletotrichum acutatum infested Citrus sinensis assessed as total fruit weight per plant at 0.056 g/l applied through airblast sprayer during green bud until open flower stages measured after 70 days (Rvb =65.90 kg); format: functional
Colletotrichum acutatum [6] = assay: Fungicidal activity against Colletotrichum acutatum infested Citrus sinensis assessed as total fruit weight per plant at 0.056 g/l applied through airblast sprayer during green bud, white bud and hollow ball flower stages measured after 70 days (Rvb =65.90 kg); format: functional
Colletotrichum acutatum [7] = assay: Fungicidal activity against Colletotrichum acutatum infested Citrus sinensis assessed as total fruit weight per plant at 0.056 g/l applied through airblast sprayer during green bud and white bud flower stages measured after 70 days (Rvb =65.90 kg); format: functional
Colletotrichum acutatum [8] = assay: Fungicidal activity against Colletotrichum acutatum infested Citrus sinensis assessed as total fruit weight per plant at 0.056 g/l applied through airblast sprayer during green bud flower stage measured after 70 days (Rvb =65.90 kg); format: functional
Colletotrichum acutatum [9] = assay: Fungicidal activity against Colletotrichum acutatum infested Citrus sinensis assessed as increase in fruit set at 0.056 g/l applied through airblast sprayer during green bud and white bud flower stages measured after 70 days; format: functional, organism-based
Colletotrichum acutatum [10] = assay: Fungicidal activity against Colletotrichum acutatum infested Citrus sinensis assessed as increase in fruit set at 0.056 g/l applied through airblast sprayer during green bud flower stage measured after 70 days; format: functional, organism-based
Colletotrichum acutatum [11] = assay: Fungicidal activity against Colletotrichum acutatum infested Citrus sinensis assessed as reduction in number of symptomatic flowers at 0.056 g/l applied through airblast sprayer during green bud until open flower stages measured after 7 days; format: functional, organism-based
Colletotrichum acutatum [12] = assay: Fungicidal activity against Colletotrichum acutatum infested Citrus sinensis assessed as reduction in number of symptomatic flowers at 0.056 g/l applied through airblast sprayer during green bud, white bud and hollow ball flower stages measured after 7 days; format: functional, organism-based
Colletotrichum acutatum [13] = assay: Fungicidal activity against Colletotrichum acutatum infested Citrus sinensis assessed as increase in fruit set at 0.056 g/l applied through airblast sprayer during green bud, white bud and hollow ball flower stages measured after 70 days; format: functional, organism-based
Colletotrichum acutatum [14] = assay: Fungicidal activity against Colletotrichum acutatum infested Citrus sinensis assessed as increase in fruit set at 0.056 g/l applied through airblast sprayer during open flower stage measured after 70 days; format: functional, organism-based
Colletotrichum acutatum [15] = assay: Fungicidal activity against Colletotrichum acutatum infested Citrus sinensis assessed as reduction in symptomatic flowers at 0.056 g/l applied through airblast sprayer during open flower stage measured after 7 days; format: functional, organism-based
Colletotrichum acutatum [16] = assay: Fungicidal activity against Colletotrichum acutatum infested Citrus sinensis assessed as reduction in symptomatic flowers at 0.056 g/l applied through airblast sprayer during hollow ball flower stage measured after 7 days; format: functional, organism-based
Colletotrichum acutatum [17] = assay: Fungicidal activity against Colletotrichum acutatum infested Citrus sinensis assessed as reduction in symptomatic flowers at 0.056 g/l applied through airblast sprayer during white bud and hollow ball flower stages measured after 7 days; format: functional, organism-based
Colletotrichum acutatum [18] = assay: Fungicidal activity against Colletotrichum acutatum infested Citrus sinensis assessed as reduction in symptomatic flowers at 0.056 g/l applied through airblast sprayer during green bud and hollow ball flower stages measured after 7 days; format: functional, organism-based
Colletotrichum acutatum [19] = assay: Fungicidal activity against Colletotrichum acutatum infested Citrus sinensis assessed as increase in fruit set at 0.056 g/l applied through airblast sprayer during green bud until open flower stages measured after 70 days; format: functional, organism-based
Colletotrichum acutatum [20] = assay: Fungicidal activity against Colletotrichum acutatum infested Citrus sinensis assessed as increase in fruit set at 1.25 g/l applied through airblast sprayer during white bud and hollow ball flower stages measured after 70 days relative to control; format: functional, organism-based
Colletotrichum acutatum [21] = assay: Fungicidal activity against Colletotrichum acutatum infested Citrus sinensis assessed as reduction in number of symptomatic flowers at 1.25 g/l applied through airblast sprayer during green bud, white bud and hollow ball flower stages measured after 7 days; format: functional, organism-based
Colletotrichum acutatum [22] = assay: Fungicidal activity against Colletotrichum acutatum infested Citrus sinensis assessed as reduction in persistant calyces at 1.25 g/l applied through airblast sprayer during green bud to white ball flower stages measured after 7 days; format: functional, organism-based
Colletotrichum acutatum [23] = assay: Fungicidal activity against Colletotrichum acutatum infested Citrus sinensis assessed as reduction in persistant calyces at 1 g/l applied through airblast sprayer during green bud to white ball flower stages measured after 7 days; format: functional, organism-based
Colletotrichum acutatum [24] = assay: Fungicidal activity against Colletotrichum acutatum infested Citrus sinensis assessed as increase in fruit set percentage at 1.25 g/l applied through airblast sprayer during green bud to white ball flower stages measured after 70 days; format: functional, organism-based
Colletotrichum acutatum [25] = assay: Fungicidal activity against Colletotrichum acutatum infested Citrus sinensis assessed as increase in fruit set percentage at 1 g/l applied through airblast sprayer during green bud to white ball flower stages measured after 70 days; format: functional, organism-based
Colletotrichum acutatum [26] = assay: Fungicidal activity against Colletotrichum acutatum infested Citrus sinensis assessed as increase in fruit production per tree at 1.25 g/l applied through airblast sprayer during green bud to white ball flower stages measured after 70 days; format: functional, organism-based
Colletotrichum acutatum [27] = assay: Fungicidal activity against Colletotrichum acutatum infested Citrus sinensis assessed as increase in fruit production per tree at 1 g/l applied through airblast sprayer during green bud to white ball flower stages measured after 70 days; format: functional, organism-based
Colletotrichum acutatum [28] = assay: Fungicidal activity against Colletotrichum acutatum infested Citrus sinensis assessed as total fruit weight per plant at 1.25 g/l applied through airblast sprayer during white bud and hollow ball flower stages measured after 70 days (Rvb =49.88 kg); format: functional
Colletotrichum acutatum [29] = assay: Fungicidal activity against Colletotrichum acutatum infested Citrus sinensis assessed as total fruit weight per plant at 1.25 g/l applied through airblast sprayer during green bud and hollow ball flower stages measured after 70 days (Rvb =49.88 kg); format: functional
Colletotrichum acutatum [30] = assay: Fungicidal activity against Colletotrichum acutatum infested Citrus sinensis assessed as total fruit weight per plant at 1.25 g/l applied through airblast sprayer during open flower stage measured after 70 days (Rvb =49.88 kg); format: functional
Colletotrichum acutatum [31] = assay: Fungicidal activity against Colletotrichum acutatum infested Citrus sinensis assessed as total fruit weight per plant at 1.25 g/l applied through airblast sprayer during hollow ball flower stage measured after 70 days (Rvb =49.88 kg); format: functional
Colletotrichum acutatum [32] = assay: Fungicidal activity against Colletotrichum acutatum infested Citrus sinensis assessed as total fruit weight per plant at 1.25 g/l applied through airblast sprayer during green bud until open flower stages measured after 70 days (Rvb =65.90 kg); format: functional
Colletotrichum acutatum [33] = assay: Fungicidal activity against Colletotrichum acutatum infested Citrus sinensis assessed as total fruit weight per plant at 1.25 g/l applied through airblast sprayer during green bud, white bud and hollow ball flower stages measured after 70 days (Rvb =65.90 kg); format: functional
Colletotrichum acutatum [34] = assay: Fungicidal activity against Colletotrichum acutatum infested Citrus sinensis assessed as total fruit weight per plant at 1.25 g/l applied through airblast sprayer during green bud and white bud flower stages measured after 70 days (Rvb =65.90 kg); format: functional
Colletotrichum acutatum [35] = assay: Fungicidal activity against Colletotrichum acutatum infested Citrus sinensis assessed as total fruit weight per plant at 1.25 g/l applied through airblast sprayer during green bud flower stage measured after 70 days (Rvb =65.90 kg); format: functional
Colletotrichum acutatum [36] = assay: Fungicidal activity against Colletotrichum acutatum infested Citrus sinensis assessed as increase in fruit set at 1.25 g/l applied through airblast sprayer during green bud, white bud and hollow ball flower stages measured after 70 days; format: functional, organism-based
Colletotrichum acutatum [37] = assay: Fungicidal activity against Colletotrichum acutatum infested Citrus sinensis assessed as increase in fruit set at 1.25 g/l applied through airblast sprayer during open flower stage measured after 70 days; format: functional, organism-based
Colletotrichum acutatum [38] = assay: Fungicidal activity against Colletotrichum acutatum infested Citrus sinensis assessed as reduction in symptomatic flowers at 1.25 g/l applied through airblast sprayer during open flower stage measured after 7 days; format: functional, organism-based
Colletotrichum acutatum [39] = assay: Fungicidal activity against Colletotrichum acutatum infested Citrus sinensis assessed as reduction in symptomatic flowers at 1.25 g/l applied through airblast sprayer during hollow ball flower stage measured after 7 days; format: functional, organism-based
Colletotrichum acutatum [40] = assay: Fungicidal activity against Colletotrichum acutatum infested Citrus sinensis assessed as reduction in symptomatic flowers at 1.25 g/l applied through airblast sprayer during white bud and hollow ball flower stages measured after 7 days; format: functional, organism-based
Colletotrichum acutatum [41] = assay: Fungicidal activity against Colletotrichum acutatum infested Citrus sinensis assessed as reduction in symptomatic flowers at 1.25 g/l applied through airblast sprayer during green bud and hollow ball flower stages measured after 7 days; format: functional, organism-based

With `CC1COC(Cn2cncn2)(c2ccc(Oc3ccc(Cl)cc3)cc2Cl)O1` (stereo unspecified) [DIFENOCONAZOLE] the Activity (Colletotrichum acutatum [1]) was 32.7 kg, the Activity (Colletotrichum acutatum [2]) was 53.5 kg and the Activity (Colletotrichum acutatum [3]) was 38 kg. For the same molecule, the Activity (Colletotrichum acutatum [4]) was 71.4 kg, the Activity (Colletotrichum acutatum [5]) was 47.2 kg and the Activity (Colletotrichum acutatum [6]) was 53.9 kg. For the same molecule, the Activity (Colletotrichum acutatum [7]) was 38.7 kg, the Activity (Colletotrichum acutatum [8]) was 59.2 kg and the Activity (Colletotrichum acutatum [9]) was “inactive”. The Activity (Colletotrichum acutatum [10]) was “inactive”, the Activity (Colletotrichum acutatum [11]) was “Active” and the Activity (Colletotrichum acutatum [12]) was “Active”. For the same molecule, the Activity (Colletotrichum acutatum [13]) was “inactive”, the Activity (Colletotrichum acutatum [14]) was “inactive” and the Activity (Colletotrichum acutatum [15]) was “inactive”. The Activity (Colletotrichum acutatum [16]) was “inactive”, the Activity (Colletotrichum acutatum [17]) was “Active” and the Activity (Colletotrichum acutatum [18]) was “Active”. For the same molecule, the Activity (Colletotrichum acutatum [19]) was “inactive”.
`O=C1c2ccccc2C(=O)N1SC(Cl)(Cl)Cl` [FOLPET] was tested, and the Activity (Colletotrichum acutatum [20]) was “Active”, the Activity (Colletotrichum acutatum [21]) was “Active” and the Activity (Colletotrichum acutatum [22]) was “Active”. For the same molecule, the Activity (Colletotrichum acutatum [23]) was “Active”, the Activity (Colletotrichum acutatum [24]) was “Active” and the Activity (Colletotrichum acutatum [25]) was “Active”. The Activity (Colletotrichum acutatum [26]) was “Active”, the Activity (Colletotrichum acutatum [27]) was “Active” and the Activity (Colletotrichum acutatum [28]) was 59.6 kg. For the same molecule, the Activity (Colletotrichum acutatum [29]) was 46 kg, the Activity (Colletotrichum acutatum [30]) was 61.2 kg and the Activity (Colletotrichum acutatum [31]) was 48.2 kg. It also gave an Activity (Colletotrichum acutatum [32]) of 86.9 kg, an Activity (Colletotrichum acutatum [33]) of 87.7 kg and an Activity (Colletotrichum acutatum [34]) of 53.5 kg. For the same molecule, the Activity (Colletotrichum acutatum [35]) was 48.7 kg, the Activity (Colletotrichum acutatum [36]) was “Active” and the Activity (Colletotrichum acutatum [37]) was “inactive”. For the same molecule, the Activity (Colletotrichum acutatum [38]) was “inactive”, the Activity (Colletotrichum acutatum [39]) was “Active” and the Activity (Colletotrichum acutatum [40]) was “Active”. For the same molecule, the Activity (Colletotrichum acutatum [41]) was “Active”.
